Assays:
[1] = test system: cultured rabbit costicartilage cells; test: Calcification of chondrocyte (Experimental Example 5); assay type: cell-based; conditions: 10^−4 M; 4 week cultivation; silver nitrate and Alizarin Red staining; FIG. 1
From the text: Costicartilages were isolated from NZ line rabbit (Kitayama Labes., Co Ltd.; male; 4-week-old) and soaked into Hank's balanced salt solution (calcium- and magnesium-free; LifeTech Co., Ltd.; hereinafter, referred to as “HBSS”). One costicartilage and one costa were excised together, the adipose tissue and the muscle tissue were removed and then, the proliferating chondrocyte layer of costicartilage was excised. The collected proliferating chondrocyte layer was cut into sections with a surgical knife (FEATHER Safety Razor Co., Ltd.) and the all proliferating chondrocyte layer sections from 4 rabbits were combined in a centrifuge tube. To the centrifuge tube was added 40 ml of HBSS (pH 7.2) supplied with 0.1% tetrasodium ethylenediamine tetraacetate to obtain suspension of the proliferating chondrocyte layer sections, which was shaken at 37° C. for 20 minutes and centrifuged (1500 rpm, 10 minutes). The supernatant was aspirated off, and 40 ml of HBSS (pH 7.2) supplied with 0.2% trypsin was added to the tube to suspend the precipitates and shaken at 37° C. for 1 hour. The tube was centrifuged (1500 rpm, 10 minutes), and the supernatant was aspirated off. […] The precipitates were suspended in the same medium to give an about 5 ml suspension, and the cell number was counted. […]

[2] = test system: fibula fracture region; test: Acceleration of fracture healing in normal rat, Compound (1) microspheres (Experimental Example 1); assay type: in vivo; conditions: normal rats, Example 2-(1) microspheres, 6 weeks after suturing; for Fibula Bone Mineral Density: at cutting site; for Fibula Bone Mineral Density / Fibula Bone Mineral Content: DXA at fracture region; for Breaking Energy / Breaking force: three-point bending test
Method: CD (SD) IGS rats (Charles River Japan, Inc.; male; 7-week-old) were housed for seven days at room temperature (23±2° C.) and 40-70% humidity. During the housing period, the rats were free to access commercially available food (from Oriental Bio; CE-2).
Under ether anesthesia, the left-lower legs of rats were shaved and sterilized with 70% aqueous ethanol, fibulas were exposed with scissors and cut with nail scissors (Natsume Seisakusyo; B17). The cut sections of the fibula were re-matched with tweezers. For the test groups (20 rats/group), the drug-containing microspheres prepared in Example 2-(1), which contains 0.1 or 0.5 mg of Compound (1), were placed around the cutting site of each rat using spatula followed by suturing with silk thread. For the control group (20 rats/group), the same amount of drug-free microspheres prepared in Control Example 1-(1) were placed around the cutting site using spatula followed by suturing with silk thread. Following the suturing, animals of every group were sterilized with 70% aqueous ethanol. At six weeks after the suturing, under ether anesthesia, 10 rats from each group were sacrificed by laparotomy with bleeding and the fibulas were excised.
The fibula excised at 6 weeks after suturing was subjected to DXA bone densitometer (Aloka; DCS-600) to determine bone mineral density and bone mineral content at fracture region (scanning width: 1 mm).
The volume of fibula excised 6 weeks after suturing was determined using Plethysmometer (Muromachi Kikai Co., Ltd.; TK-101).
The fibula excised at 6 weeks after suturing was subjected to a three-point bending test with bone strength tester (from Muromachi Kikai Co., Ltd.; TK-252C) to determine bone strength. Briefly, the fibula was supported by two supports apart from each other by 8 mm and the cut section was positioned at the middle of these supports, i.e., 4 mm apart from the respective two supports. Loading (3 mm/minute) from upper direction was kept on the middle point (fracture section) of fibula until fibula begins to fracture. The maximum pressure necessary to break the bone was defined as the breaking force and the total energy spent to break the bone was defined as the breaking energy.

[3] = test system: rabbit costicartilage cells; test: Cartilage matrix (proteoglycan) production, Alcian blue staining (Experimental Examples 3 and 4); assay type: cell-based; conditions: summary of Tables 10 and 11
From the text: Costicartilages were isolated from NZ line rabbit (Kitayama Labes., Co Ltd.; male; 4-week-old) and soaked into Hank's balanced salt solution (calcium- and magnesium-free; LifeTech Co., Ltd.; hereinafter, referred to as “HBSS”). One costicartilage and one costa were excised together, the adipose tissue and the muscle tissue were removed and then, the proliferating chondrocyte layer of costicartilage was excised. The collected proliferating chondrocyte layer was cut into sections with a surgical knife (FEATHER Safety Razor Co., Ltd.) and the all proliferating chondrocyte layer sections from 4 rabbits were combined in a centrifuge tube. To the centrifuge tube was added 40 ml of HBSS (pH 7.2) supplied with 0.1% tetrasodium ethylenediamine tetraacetate to obtain suspension of the proliferating chondrocyte layer sections, which was shaken at 37° C. for 20 minutes and centrifuged (1500 rpm, 10 minutes). The supernatant was aspirated off, and 40 ml of HBSS (pH 7.2) supplied with 0.2% trypsin was added to the tube to suspend the precipitates and shaken at 37° C. for 1 hour. The tube was centrifuged (1500 rpm, 10 minutes), and the supernatant was aspirated off. The precipitates were washed twice with HBSS, suspended in 100 ml of HBSS supplied with 0.1% collagenase (Wako Pure Chemical Industries, Ltd., 034-10533) and shaken at 37° C. for 3 hours. The content of the tube was passed through the Cell Strainer (pore size 40 μm) and the filtrate was divided into four centrifuge tubes. To each of all four tubes was added 40 ml of medium (α-MEM, LifeTech Co., Ltd.), and the tubes were centrifuged (1500 rpm, 10 minutes). The supernatant was aspirated off, and the resultant precipitates were collected in one tube with Pipetman. After addition of 40 ml of the same medium, the tube was re-centrifuged (1500 rpm, 10 minutes). Washing procedure comprising addition of medium followed by centrifugation was repeated additional three times. The precipitates were suspended in the same medium to give an about 5 ml suspension, and the cell number was counted.
The suspension of costicartilage cell described above was added to 24-well plate at 50,000 cells per well (day 1). […]
After removing the medium, cells in each well were fixed by addition of 1 ml of neutral buffer containing 4% paraformaldehyde and incubation for 30 minutes at room temperature. […] Absorbance at 620 nm was measured, and cartilage matrix amount (proteoglycan production amount) in each well was estimated, and proteoglycan production rate (%) of each test compound for vehicle (100%) was calculated.
The cartilage matrix (proteoglycan) production was determined using other compounds (compounds (52)-(55) and Compound (2) for comparison) in exactly the same manner as Experimental Example 3 above.

[4] = test system: backbone, femur and cortical bone of mouse; conditions: daily subcutaneous injection; cited from earlier work

SMILES: CCOc1cc2cc(CO)c(CO)c(-c3ccn(CCOC)c(=O)c3)c2cc1OCC [Compound (1)]
- calcium deposition / calcification enhancement [1]: calcium deposition was clearly observed
- Fibula Bone Mineral Density ([2]; drug content 0.1 mg): 36.77 ± 1.52 mg/cm^2
- Fibula Bone Volume ([2]; drug content 0.1 mg): 68.1 ± 2.9 µL
- Fibula Bone Mineral Content ([2]; drug content 0.1 mg): 14.27 ± 0.76 mg
- Breaking Energy ([2]; drug content 0.1 mg): 4.37 ± 0.71 mJ
- Breaking force ([2]; drug content 0.1 mg): 19.8 ± 2.14 N
- Fibula Bone Mineral Density ([2]; drug content 0.5 mg): 40.05 ± 1.34 mg/cm^2
- Fibula Bone Volume ([2]; drug content 0.5 mg): 77.2 ± 2.9 µL
- Fibula Bone Mineral Content ([2]; drug content 0.5 mg): 15.20 ± 0.82 mg
- Breaking Energy ([2]; drug content 0.5 mg): 6.44 ± 1.06 mJ
- Breaking force ([2]; drug content 0.5 mg): 23.0 ± 1.68 N
- cartilage matrix (proteoglycan) production promoting effect (in words) [3]: remarkable matrix production promoting effect

SMILES: COc1cc2c(cc1OC)C(c1ccnc(-n3ccc4c(OCCN5CCOCC5)cccc4c3=O)c1)=N[C@H](CO)C2 [Compound (52)]
- cartilage matrix (proteoglycan) production promoting effect (in words) [3]: remarkable matrix production promoting effect

SMILES: COc1cc2cc(CO)nc(-c3ccnc(-n4nc(-c5nccs5)c5ccccc5c4=O)c3)c2cc1OC [Compound (53)]
- cartilage matrix (proteoglycan) production promoting effect (in words) [3]: remarkable matrix production promoting effect

SMILES: CC(=O)CCCCn1c(=O)c2c(ncn2C)n(C)c1=O [Pentoxifylline]
- bone mineral density of the backbone and the femur [4]: increase of bone mineral density of the backbone and the femur
- hyperplasia of cortical bone [4]: hyperplasia of cortical bone

SMILES: COc1ccc(C2CNC(=O)C2)cc1OC1CCCC1 (stereo not drawn) [Rolipram]
- bone mineral density of the backbone and the femur [4]: increase of bone mineral density of the backbone and the femur
- hyperplasia of cortical bone [4]: hyperplasia of cortical bone

Source: patent US7659273B2, “Composition for accelerating bone fracture healing” (Mitsubishi Tanabe Pharma Corporation, priority 2001, dated 2010)
